Source: US20230066286A1, “DEUTERATED TRYPTAMINE DERIVATIVES AND METHODS OF USE” (priority 2020, published 2023)
pEC50, pKi: −log10 of the molar value.

Experiments:
hrMAO-A = target: T1, hrMAO-A (Homo sapiens, UniProt P21397); assay: Metabolic stability in the presence of hrMAO-A; assay type: in vitro ADME; conditions: for MAO, % (half-life as % vs. the related nondeuterated compound) / MAO (metabolized or not): MAO-A assay; for MAO, % (half-life as % vs. the related nondeuterated compound): values in square brackets are within 10% difference (assay's accuracy), no deuteration effect; for MAO (metabolized or not): last time point 120 min
T1 construct: purchased XenoTech Lot# 8213001
T1 sequence (P21397 1-527): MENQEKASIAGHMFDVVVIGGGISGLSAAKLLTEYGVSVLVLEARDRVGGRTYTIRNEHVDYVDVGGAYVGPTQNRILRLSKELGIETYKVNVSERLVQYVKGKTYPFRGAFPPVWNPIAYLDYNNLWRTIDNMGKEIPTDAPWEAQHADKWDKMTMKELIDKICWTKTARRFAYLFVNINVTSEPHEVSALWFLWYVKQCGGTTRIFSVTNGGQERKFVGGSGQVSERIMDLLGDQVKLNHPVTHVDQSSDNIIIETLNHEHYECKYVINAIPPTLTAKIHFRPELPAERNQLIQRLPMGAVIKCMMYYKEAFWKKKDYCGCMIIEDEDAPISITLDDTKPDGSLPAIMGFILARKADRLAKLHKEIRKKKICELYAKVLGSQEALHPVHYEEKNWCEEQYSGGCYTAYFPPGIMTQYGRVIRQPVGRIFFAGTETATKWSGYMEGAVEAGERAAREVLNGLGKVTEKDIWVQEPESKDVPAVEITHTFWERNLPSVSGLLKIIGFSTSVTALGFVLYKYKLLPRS
Method: The reaction mixture was prepared as described below. The co-dosed TAs were added into the reaction mixture at a final concentration of 1 microM each. The positive control, kynuramine (25 microM), was run simultaneously with the TAs in a separate reaction. The reaction mixture (without TAs or kynuramine) was equilibrated in a shaking water bath at 37° C. for 5 minutes. The reaction was initiated by the addition of the TAs or kynuramine, and the mixture was incubated in a shaking water bath at 37° C. Aliquots (100 microL) of the TA reaction mixture were withdrawn at 0, 5, 10, 20, 30, 60, and 120 minutes. Aliquots (100 microL) of the positive control reaction mixture were withdrawn at 0 and 30 minutes. TA and kynuramine samples were immediately combined with 100 microL of ice-cold 100% MeCN containing 0.1% formic acid and IS to terminate the reaction. The samples were then mixed and centrifuged to precipitate proteins. All TA samples were assayed by LC-HRAMS. The PARR (analyte to IS) at each time point was compared to the PARR at time 0 to determine the percent remaining at each time point. Reaction composition: hrMAO 0.02 mg/mL; Potassium Phosphate, pH 7.4 100 mM; Magnesium Chloride 5 mM; Test Articles (each) 1 microM.

rat liver microsomes = assay: Metabolic stability in rat liver microsomes (RLM); conditions: for RLM (metabolized or not): RLM assay, last time point 120 min
[1] = oral; cited from earlier work
[2] = Blood-to-plasma ratio (BPR), parent drug in brain and plasma of rats; assay type: in vivo, rat; conditions: % change vs. non-deuterated material; for BPR, 15 min, deuterium kinetic isotope effect (% change): rats sacrificed at 15 min; for BPR, 30 min, deuterium kinetic isotope effect (% change): rats sacrificed at 30 min
Method: (§1) The key PK parameters (presented as a % change vs. non-deuterated materials) are presented in Table 3 to include half-life (T½), area under the curve (AUC), bioavailability (F) and blood-to-plasma ration (BPR). Pharmacokinetics of the deuterated tryptamines was studied in rats. In a typical experiment, run as a cassette dosing, two groups of 5 Wistar female rats (200-250 g) with surgically inserted jugular vein catheter (Charles River, Andover, MA) were fasted for 12 h and then administered 5 mg/kg of the deuterated and 5 mg/kg of the related non-deuterated analog, by oral gavage or via a catheter for each group. At time points 0, 15, 30, 60 min, and 2, 4, 8, and 24 h, the resulting plasma was analyzed for the parent molecule using LC/MS spectroscopy. Two separate groups of 5 animals were used for determining blood-to-plasma ratio (BPR). Each group was sacrificed at time points 15 and 30 min, respectively, and the concentration of the parent drug was determined in the […] and plasma by LC/MS spectroscopy.

[3] = PK study in rats, cassette dosing; assay type: in vivo, rat; conditions: % change vs. non-deuterated material, 5 mg/kg; for AUC, deuterium kinetic isotope effect (% change) / T½, deuterium kinetic isotope effect (% change): oral gavage or via catheter
Method: as §1

5-HT1A [4] = target: T2, 5-HT1A (Homo sapiens, UniProt P08908); assay: Receptor affinity assay, radioligand competition binding
T2 construct: expressed in transfected cells; host or cells: CHO-K1 or HEK293
T2 sequence (P08908 1-422): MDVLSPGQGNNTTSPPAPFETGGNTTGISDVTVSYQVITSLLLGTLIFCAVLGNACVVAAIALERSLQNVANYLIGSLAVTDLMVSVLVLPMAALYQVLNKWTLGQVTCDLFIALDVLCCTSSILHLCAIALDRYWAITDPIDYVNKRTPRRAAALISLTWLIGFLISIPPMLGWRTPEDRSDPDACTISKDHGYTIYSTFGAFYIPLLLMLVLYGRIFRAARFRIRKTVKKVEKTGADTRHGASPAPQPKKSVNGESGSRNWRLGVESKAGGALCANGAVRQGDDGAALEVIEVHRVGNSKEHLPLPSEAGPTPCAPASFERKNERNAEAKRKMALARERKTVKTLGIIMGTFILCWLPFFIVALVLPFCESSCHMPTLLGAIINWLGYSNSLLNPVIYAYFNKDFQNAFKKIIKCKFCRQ
Method: Receptor Affinity Assays: 5-HT1A, 5-HT2(A,B,C) receptor affinities were determined by radioligand competition binding. Membranes from CHO-K1 or HEK293 cells expressing serotonergic receptors were collected and incubated in assay buffer with Kd concentrations of radioligands and tests compounds that compete for receptor binding sites. After equilibration, the reaction was terminated by collecting ligand-receptor-membrane complexes (Microbeta, PerkinElmer), and radioactivity was measured by a scintillation counter (Microbeta2, PerkinElmer). Data were fit to non-linear curves, and Ki values were calculated per the Cheng-Prusoff equation.

5-HT1A [5] = target: T2, 5-HT1A; assay: Receptor function assay, Gi stimulation (reduction in cAMP levels); assay type: cell-based
Method: Receptor Function Assays: 5-HT1A receptor-mediated Gi stimulation (reduction in cyclic adenosine monophosphate (cAMP) levels) and 5-HT2(A,B,C) receptor-mediated Gq stimulation (phosphoinositide hydrolysis leading to the production of inositol phosphate 1 (IP1))-canonical signaling pathways—were measured as previously described (Canal et al., 2013), for example, with a homogeneous time-resolved fluorescence (HTRF) capable microplate reader (e.g., Mithras LB 940, Berthold) using commercially-available kits employing Fluorescence Resonance Energy Transfer (FRET) technology (e.g., LANCE Ultra cAMP TR-FRET (PerkinElmer) and IP-One HTRF (Cisbio) kits). Briefly, CHO-K1 or HEK293 cells expressing serotonergic receptors were incubated with test compounds in stimulation buffer. After equilibration, the reaction was terminated with the donor and acceptor fluorescent conjugates in lysis buffer, and FRET was measured. Data were fit to non-linear curves to calculate potencies (e.g., EC50) and efficacies (e.g., EMAX), relative to positive controls (e.g., serotonin).

[2H]C([2H])(Cc1c[nH]c2ccccc12)NC([2H])([2H])C([2H])([2H])[2H]
MAO, % (half-life as % vs. the related nondeuterated compound) (hrMAO-A): 170%

[2H]C([2H])(NCC)C([2H])([2H])c1c[nH]c2ccccc12
MAO, % (half-life as % vs. the related nondeuterated compound) (hrMAO-A): 140%

CCNCCc1c[nH]c2ccccc12
RLM (metabolized or not) (rat liver microsomes): R | MAO (metabolized or not) (hrMAO-A): R

CCN(C)CCc1c[nH]c2ccccc12
RLM (metabolized or not) (rat liver microsomes): R | MAO (metabolized or not) (hrMAO-A): R

CCN(C)CCc1c[nH]c2ccc(OC)cc12
RLM (metabolized or not) (rat liver microsomes): R | MAO (metabolized or not) (hrMAO-A): R

CCN(C)CCc1c[nH]c2ccc(O)cc12
RLM (metabolized or not) (rat liver microsomes): R | MAO (metabolized or not) (hrMAO-A): R

CCN(C)CCc1c[nH]c2cccc(OC)c12
RLM (metabolized or not) (rat liver microsomes): R | MAO (metabolized or not) (hrMAO-A): R

COc1ccc2[nH]cc(CCN(C)C)c2c1
RLM (metabolized or not) (rat liver microsomes): R | MAO (metabolized or not) (hrMAO-A): R

CN(C)CCc1c[nH]c2ccc(O)cc12
RLM (metabolized or not) (rat liver microsomes): R | MAO (metabolized or not) (hrMAO-A): R

COc1cccc2[nH]cc(CCN(C)C)c12
RLM (metabolized or not) (rat liver microsomes): R | MAO (metabolized or not) (hrMAO-A): R

CNCCc1c[nH]c2ccccc12
RLM (metabolized or not) (rat liver microsomes): R | MAO (metabolized or not) (hrMAO-A): R

CNCCc1c[nH]c2cccc(O)c12
RLM (metabolized or not) (rat liver microsomes): R | MAO (metabolized or not) (hrMAO-A): R

COc1cc(CCNCc2ccccc2OC)c(OC)cc1Cl [2C-C-NBOMe, 2-(4-Chloro-2,5-dimethoxyphenyl)-N-[(2-methoxyphenyl)methyl]ethan-l-amine]
orally active dose, as low as [1]: 25 µg | very strong psychedelic doses [1]: 500 to 700 µg

[2H]C([2H])(Cc1c[nH]c2ccc(OC)cc12)N(C)C [5-MeO-DMT-α,α-d2]
BPR, 15 min, deuterium kinetic isotope effect (% change) [2]: 120% | BPR, 30 min, deuterium kinetic isotope effect (% change) [2]: 180% | AUC, deuterium kinetic isotope effect (% change) [3]: 60% | T½, deuterium kinetic isotope effect (% change) [3]: 30%

[2H]C([2H])(Cc1c[nH]c2ccccc12)N(C)C [DMT-d2]
% Remaining of Initial 0 min (rat liver microsomes; RLM, four test articles): 100% | % Remaining of Initial 60 min (rat liver microsomes; RLM, four test articles, 60 min): 32.0% | CLint (hrMAO-A; hrMAO-A, four test articles): 0.126 mL/min/ mg protein | % Remaining of Initial 0 min (hrMAO-A; hrMAO-A, four test articles): 100% | % Remaining of Initial 60 min (hrMAO-A; hrMAO-A, four test articles, 60 min): 76.0%

[2H]C([2H])(c1c[nH]c2ccccc12)C([2H])([2H])N(C)C [DMT-d4]
% Remaining of Initial 0 min (rat liver microsomes; RLM, four test articles): 100% | CLint (hrMAO-A; hrMAO-A, four test articles): 0.119 mL/min/ mg protein | % Remaining of Initial 0 min (hrMAO-A; hrMAO-A, four test articles): 100%

[2H]C([2H])([2H])N(C([2H])([2H])[2H])C([2H])([2H])C([2H])([2H])c1c[nH]c2ccccc12 [DMT-d10]
% Remaining of Initial 0 min (rat liver microsomes; RLM, d8 and d10 analogs of DMT): 100% | % Remaining of Initial 10 min (rat liver microsomes; RLM, d8 and d10 analogs of DMT, 10 min): 56.0% | % Remaining of Initial 0 min (rat liver microsomes; RLM, four test articles): 100% | metabolic stability vs. less deuterated DMT analogs (rat liver microsomes; rat liver microsomes): Further enhancement of metabolic stability | stability in the MAO-A enzymatic assay vs. less deuterated DMT analogs (hrMAO-A; MAO-A enzymatic assay): superiority | % Remaining of Initial 0 min (hrMAO-A; hrMAO-A, d8 and d10 analogs of DMT): 100.0% | % Remaining of Initial 5 min (hrMAO-A; hrMAO-A, d8 and d10 analogs of DMT, 5 min): 99.0% | % Remaining of Initial 0 min (hrMAO-A; hrMAO-A, four test articles): 100%

CN(C)CCc1c[nH]c2ccccc12 [DMT]
% Remaining of Initial 0 min (rat liver microsomes; RLM, four test articles): 100% | % Remaining of Initial 20 min (rat liver microsomes; RLM, four test articles, 20 min): 41.0% | CLint (hrMAO-A; hrMAO-A, four test articles): 0.638 mL/min/ mg protein | % Remaining of Initial 0 min (hrMAO-A; hrMAO-A, four test articles): 100%

[2H]C([2H])(Cc1c[nH]c2cccc(O)c12)N(C)C [PI-α,α-d2]
BPR, 15 min, deuterium kinetic isotope effect (% change) [2]: 100% | BPR, 30 min, deuterium kinetic isotope effect (% change) [2]: 150% | AUC, deuterium kinetic isotope effect (% change) [3]: 75% | T½, deuterium kinetic isotope effect (% change) [3]: 50% | bioavailability ([3]; female, Wistar, rat, plasma, oral, read-out: F (bioavailability), deuterium kinetic isotope effect (% change)): 45% | pKi (5-HT1A [4]): 6.29 | pEC50 (5-HT1A [5]): 6.70
